From paper PMC5141568 (ACS Medicinal Chemistry Letters, 2015) come the findings set out here.

Structures are written as SMILES. Entries after “also recorded” stand apart in the source; their conditions may differ.

One assay concerns the target T1, Naegleria Tet1 (NgTet1) (Naegleria gruberi, UniProt D2W6T1).
T1 sequence (D2W6T1 1-321): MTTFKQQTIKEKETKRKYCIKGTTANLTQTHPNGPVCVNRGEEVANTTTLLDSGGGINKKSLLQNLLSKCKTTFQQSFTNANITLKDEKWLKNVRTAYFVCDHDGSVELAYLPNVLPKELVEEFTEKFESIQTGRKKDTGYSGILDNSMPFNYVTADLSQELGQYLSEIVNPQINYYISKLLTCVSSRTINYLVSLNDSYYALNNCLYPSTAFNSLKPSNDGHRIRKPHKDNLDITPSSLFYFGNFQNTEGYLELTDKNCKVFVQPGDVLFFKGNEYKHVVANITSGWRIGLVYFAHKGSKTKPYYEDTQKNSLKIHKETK
Description: FP competitive binding assay. The note with it: 2.5 and 1.25 mM.
For the molecule `O=C(O)CC[C@@H](O)C(=O)O` [compound 7, D-2-hydroxyglutaric acid], the “inhibition at the highest concentrations tested” value was “very slight inhibition”.

The same assay, now with this note: at the concentrations tested (up to 5.0 mM for 8 and 9).
In the case of `O=C(O)CCC(=O)C(=O)O` [compound 4, α-ketoglutarate], the “competitive displacement of 3 from NgTet1” value is “showed the ability to competitively displace 3”.
`O=C(O)CNC(=O)C(=O)O` [compound 5, N-oxalyl glycine]: the “competitive displacement of 3 from NgTet1” value is listed as “showed the ability to competitively displace 3”.
Still for that read-out and setting: under `O=C(O)c1ccnc(C(=O)O)c1` [compound 6, pyridine 2,4-dicarboxylic acid] stands “showed the ability to competitively displace 3”; under `Cc1cn([C@H]2C[C@H](O)[C@@H](CO)O2)c(=O)nc1N` [compound 8, 5-methyl-2'-deoxycytidine], “Neither 5mC (8) nor 5hmC (9) showed competitive binding; also recorded: unable to competitively displace 3”; under `Nc1nc(=O)n([C@H]2C[C@H](O)[C@@H](CO)O2)cc1CO` [compound 9, 2'-deoxy-5-(hydroxymethyl)cytidine], “Neither 5mC (8) nor 5hmC (9) showed competitive binding; also recorded: unable to competitively displace 3”.
